Measurements as given in article PMC9166630, “SAR Probing of KX2-391 Provided Analogues With Juxtaposed Activity Profile Against Major Oncogenic Kinases” (Frontiers in Oncology, 2022).

Columns and labels:
[1] = test system: N87 (stomach) cancer cells; assay: SRB cytotoxicity assay, N87; format: cell-based; details: Homo sapiens, 72 h, maximum tested concentration 50 µM, read-out: IC50 ± SEM, N87
Description: MCF7 (breast) or N87 (stomach) cancer cells were grown in Roswell Park Memorial Institute-1640 (RPMI-1640) medium (Thermo Fisher Scientific, Inc; Waltham, MA, USA), supplemented with 10% heat inactivated fetal bovine serum (FBS), 50 units/mL of penicillin and […] of streptomycin and maintained at 37°C in a humidified atmosphere containing 5% CO2. The cells were maintained as “monolayer culture” by serial subculturing.
Cytotoxicity was determined using Sulforhodamine B (SRB) method as previously described by Skehan et al. ([66]). Exponentially growing MCF7 and N87 cells were collected using 0.25% Trypsin-EDTA and were then seeded in 96-well plates at a density of 1000-2000 cells/well in 10% FBS and penicillin/streptomycin supplemented RPMI-1640 medium. After 24 h, cells were treated with different concentrations of test compounds and incubated for 72 h at 37°C in a humidified atmosphere containing 5% CO2. Next, the cells were fixed by adding trichloroacetic acid (TCA, 10% final conc. in wells) directly to the wells and incubated for 1 h at 4°C, then cells were washed with distilled water 5 times to remove excess TCA, media, serum proteins, and metabolites, followed by air drying. After that, the fixed cells were stained with 0.4% SRB dissolved in 1% acetic acid for 10 min at room temperature, and excess stain was removed by quickly rinsing with 1% acetic acid. The residual acetic acid was removed completely by air drying the plates for 24 h, and the dye was solubilized with Tris buffer (pH= 7.4, 10 mM) for 5 min on a shaker at 1600 rpm. The optical density (OD) of each well was measured spectrophotometrically at 564 nm with an ELISA microplate reader (ChroMate-4300, FL, USA). The IC50 values (concentration of drug resulting in 50% reduction in cell survival) were calculated according to the equation for Boltzman sigmoidal concentration–response curve using the nonlinear regression fitting models (Graph Pad, Prism Version 5).

[2] = test system: ERK1/2; assay: Human phosphokinase array, ERK1/2; format: cell-based
From the text: The kinome tree representation (Figure 7C), which was generated by raising the Kinase Score cut-off to >1.2, confirmed that, unlike tirbanibulin and our prototype molecule KX1-136, 4e’s effects were more observable on kinases other than the Src family such as the Eph and TEC families. […] Therefore, we screened compound 4e using the Human Phospho-Kinase Array® kit from R&D systems (Minneapolis, MN, USA). In this system, 35 phosphorylated YK and serine-threonine kinase (STK) enzymes in the untreated (control) and treated (test) HL60 cell lysates were captured on nitrocellulose membrane, pre-spotted with phosphokinase-specific capture antibodies, and then visualized by detection antibody cocktails (Figure 8). The difference in the spot intensity between untreated (control) and treated cells is proportional to change in the amount of the phosphorylated protein induced by 4e.
The phosphorylation profile of 48 kinases was performed using the Proteome Profiler Human Phospho-Kinase Antibody Array Kit by R&D Systems (Minneapolis, MN, USA) according to the protocol. Briefly, the total cellular protein was extracted using the Lysis buffer and was quantified using Bio-Rad DC Protein Assay kit (Hercules, CA, USA). Nitrocellulose membrane set (A&B), pre-spotted with kinase-specific capture antibodies, were first blocked with Array Buffer-1 at RT for 30 min on a rocking platform shaker. Approximately 600 µg of protein concentrate was diluted in the buffer provided and was added onto the membrane set, and the membranes were incubated overnight at 4°C in an 8-well plate. Subsequently, membranes were washed with Wash Buffer and incubated with appropriate Detection Antibody cocktails for 2 h at RT. Streptavadin-HRP (1:2000) was added onto membranes and incubated for 30 min at RT. Membranes were washed, and Chemiluminescent Detection Reagents 1&2 were applied in equal volumes for detection. The signals were detected on C-DiGit®Blot Scanner (LI-COR, Odyssey Imaging Systems, Lincoln, Nebraska, USA) using Image Studio 5.0 software.

[3] = test system: CTK; assay: PamChip tyrosine kinase microarray, CTK; format: biochemical, human; details: 4e 0.1 µM, HL60 lysate
Description: The changes in kinase activities induced by treatment with 4e were monitored within the HL60 cell lines using PamGene’s (Hertogenbosch, Netherlands) PamChip® peptide microarray profiler, which quantifies the activities of 144 tyrosine kinases (YK) ([29], [30]) (Figure 7). Results are provided as a log fold change (LFC) heatmap and Mean Kinase Statistic. From the LFC it is apparent that compound 4e, at a concentration of 0.1 µM, induced sizable changes to the activity of several kinases within the cell signaling YK profile (Figure 7A).
An Upstream Kinase tool was used to generate a putative list of kinases responsible for phosphorylating the phospho-sites on the PamChip (Figure 7B) ([31]). It is an interpretation and is highly dependent on the contents of the underlying phosphorylation databases. A Kinase Score was used for ranking kinases based on their significance and specificity in terms of the set of peptides used for the corresponding kinase. Kinase Statistics indicates the overall change of the peptide set that represents the kinase. Kinase statistics value <0 indicates lower kinase activity in the compound spiked lysate and vice versa ([32], [33]). Table 5 lists the 20 most changed kinases within treated HL60 cell lysates by 0.1 μM 4e, ranked according to their Kinase Score.
The compound 4e was spiked into HL60 cell lysate at different concentrations (0.001, 0.01, 0.1, 1, 10 and 50 μM). In addition, DMSO was also spiked in HL60 lysate at low concentration (2% v/v) as control. Samples were profiled on PamGene’s Tyrosine Kinase (PTK) arrays in technical replicates, covering a total of 196 phosphorylation sites. Frozen HL60 cultured cell pellet was sent to PamGene. At PamGene, cells were lysed using a lysis buffer and proteases inhibitors cocktail. Protein concentration was measured using standard Bradford assay as per PamGene SOPs. These lysates were further used for generating the PTK activity profiles. For spiking, 4e was received as powder form and dissolved in DMSO at PamGene facility followed by storing at -20°C in small aliquots. PamGene used its in-house bioinformatics toolbox in combination with other methods to generate hypotheses of signaling pathways.

## O=C(Cc1ccc(NC(=O)c2cccc(Cl)c2)cc1)NCc1ccccc1 [Compound 4e, N-(4-(2-(benzylamino)-2-oxoethyl)phenyl)-3-chlorobenzamide]
[1]
  IC50: 5.28 ± 0.91 µM
[2]; HL60, kinase profiling
  reduction of ERK1/2 activity: > 99%
[2]; HL60 cell lysate, treated
  phosphokinase signal after 4e exposure, ERK1/2: 1.05
[2]; treated vs untreated HL60
  % Change, ERK1/2: -99.41%
  Change in Signal, ERK1/2: -177.83
[3]
  Mean Final Score: 1.5802
  Mean Kinase Statistic: -0.4874
  Mean Significance Score: 1.1881
  Mean Specificity Score: 0.3920
